Laboratory results reported in article PMC5681922, “Systemic Responses of Multidrug-Resistant Pseudomonas aeruginosa and Acinetobacter baumannii Following Exposure to the Antimicrobial Peptide Cathelicidin-BF Imply Multiple Intracellular Targets” (Frontiers in Cellular and Infection Microbiology, 2017).
Read-outs that look alike come from different tables or passages of the source. No end group written: not given here.

Tested on: P. aeruginosa 1409
[1] = treated vs untreated, iTRAQ, cathelicidin-BF change not categorized as differentially expressed

KFFRKLKKSVKKRAKEFFKKPRVIGVSIPF [cathelicidin-BF]
Pa-Ca/Pa-C: 0.8832
Pa-Ca/Pa-C: 30S ribosomal protein S9, rpsI (Q9HVY3): 0.9749
expression of protein Q9HVA1 (acetolactate synthase isozyme III small subunit): overexpressed
expression of protein Q9I3S7 (likely decarboxylase): downregulated
expression of protein Q9I523 (nucleoside-triphosphate diphosphatase): downregulated
Pa-Ca/Pa-C (iTRAQ abundance ratio Pa-Cathelicidin/Pa-Control of protein G3XCU7 (GN=PA2949)): 0.9896
Pa-Ca/Pa-C (iTRAQ abundance ratio Pa-Cathelicidin/Pa-Control of protein G3XCU9 (GN=PA2020)): 0.9868
Pa-Ca/Pa-C (iTRAQ abundance ratio Pa-Cathelicidin/Pa-Control of protein G3XCW2 (GN=PA2018)): 1.1346
Pa-Ca/Pa-C (iTRAQ abundance ratio Pa-Cathelicidin/Pa-Control of protein G3XCX7 (GN=pilP)): 0.9395
Pa-Ca/Pa-C (iTRAQ abundance ratio Pa-Cathelicidin/Pa-Control of protein G3XCZ4 (GN=PA0891)): 1.209
Pa-Ca/Pa-C (iTRAQ abundance ratio Pa-Cathelicidin/Pa-Control of protein G3XD66 (GN=narX)): 0.9046
Pa-Ca/Pa-C (iTRAQ abundance ratio Pa-Cathelicidin/Pa-Control of protein G3XD98 (GN=gacS)): 1.089
Pa-Ca/Pa-C (iTRAQ abundance ratio Pa-Cathelicidin/Pa-Control of protein G3XDA4 (GN=PA0653)): 1.044
Pa-Ca/Pa-C (iTRAQ abundance ratio Pa-Cathelicidin/Pa-Control of protein O50273 (GN=cysD)): 0.9324
Pa-Ca/Pa-C (iTRAQ abundance ratio Pa-Cathelicidin/Pa-Control of protein O68561 (GN=PA4766)): 1.042
Pa-Ca/Pa-C (iTRAQ abundance ratio Pa-Cathelicidin/Pa-Control of protein P23747 (GN=algB)): 1.041
Pa-Ca/Pa-C (iTRAQ abundance ratio Pa-Cathelicidin/Pa-Control of protein Q9HT06 (GN=yidC)): 1.13
Pa-Ca/Pa-C (iTRAQ abundance ratio Pa-Cathelicidin/Pa-Control of protein Q9HT09 (GN=mnmG)): 1.075
Pa-Ca/Pa-C (iTRAQ abundance ratio Pa-Cathelicidin/Pa-Control of protein Q9HTC2 (GN=PA5445)): 1.07
Pa-Ca/Pa-C (iTRAQ abundance ratio Pa-Cathelicidin/Pa-Control of protein Q9HTG5 (GN=dgcB)): 1.053
Pa-Ca/Pa-C (iTRAQ abundance ratio Pa-Cathelicidin/Pa-Control of protein Q9HTH5 (GN=cdhR)): 1.224
Pa-Ca/Pa-C (iTRAQ abundance ratio Pa-Cathelicidin/Pa-Control of protein Q9HTJ5 (GN=pstA)): 0.8996
Pa-Ca/Pa-C (iTRAQ abundance ratio Pa-Cathelicidin/Pa-Control of protein Q9HTL3 (GN=recG)): 1.182
Pa-Ca/Pa-C (iTRAQ abundance ratio Pa-Cathelicidin/Pa-Control of protein Q9HTM0 (GN=spoT)): 1.095
Pa-Ca/Pa-C (iTRAQ abundance ratio Pa-Cathelicidin/Pa-Control of protein Q9HTN3 (GN=dut)): 1.23
Pa-Ca/Pa-C (iTRAQ abundance ratio Pa-Cathelicidin/Pa-Control of protein Q9HTQ6 (GN=xpt)): 1.069
Pa-Ca/Pa-C (iTRAQ abundance ratio Pa-Cathelicidin/Pa-Control of protein Q9HTY4 (GN=argE)): 1.064
Pa-Ca/Pa-C (iTRAQ abundance ratio Pa-Cathelicidin/Pa-Control of protein Q9HU23 (GN=rmlD)): 0.9526
Pa-Ca/Pa-C (iTRAQ abundance ratio Pa-Cathelicidin/Pa-Control of protein Q9HU51 (GN=PA5133)): 0.8597
Pa-Ca/Pa-C (iTRAQ abundance ratio Pa-Cathelicidin/Pa-Control of protein Q9HUB1 (GN=PA5072)): 1.129
Pa-Ca/Pa-C (iTRAQ abundance ratio Pa-Cathelicidin/Pa-Control of protein Q9HUL5 (GN=PA4949)): 0.9992
Pa-Ca/Pa-C (iTRAQ abundance ratio Pa-Cathelicidin/Pa-Control of protein Q9HUN4 (GN=alr)): 0.8997
Pa-Ca/Pa-C (iTRAQ abundance ratio Pa-Cathelicidin/Pa-Control of protein Q9HUS6 (GN=PA4887)): 0.9498
Pa-Ca/Pa-C (iTRAQ abundance ratio Pa-Cathelicidin/Pa-Control of protein Q9HUT5 (GN=PA4878)): 0.8866
Pa-Ca/Pa-C (iTRAQ abundance ratio Pa-Cathelicidin/Pa-Control of protein Q9HVA1 (GN=ilvH)): 1.442
Pa-Ca/Pa-C (iTRAQ abundance ratio Pa-Cathelicidin/Pa-Control of protein Q9HVI2 (GN=PA4607)): 1.1056
Pa-Ca/Pa-C (iTRAQ abundance ratio Pa-Cathelicidin/Pa-Control of protein Q9HVI3 (GN=PA4606)): 1.1297
Pa-Ca/Pa-C (iTRAQ abundance ratio Pa-Cathelicidin/Pa-Control of protein Q9HVP4 (GN=PA4533)): 1.032
Pa-Ca/Pa-C (iTRAQ abundance ratio Pa-Cathelicidin/Pa-Control of protein Q9HVQ9 (GN=lpxO1)): 0.3833
Pa-Ca/Pa-C (iTRAQ abundance ratio Pa-Cathelicidin/Pa-Control of protein Q9HVV6 (GN=PA4461)): 0.9096
Pa-Ca/Pa-C (iTRAQ abundance ratio Pa-Cathelicidin/Pa-Control of protein Q9HW10 (GN=PA4396)): 0.9909
Pa-Ca/Pa-C (iTRAQ abundance ratio Pa-Cathelicidin/Pa-Control of protein Q9HW40 (GN=PA4361)): 1.028
Pa-Ca/Pa-C (iTRAQ abundance ratio Pa-Cathelicidin/Pa-Control of protein Q9HW52 (GN=PA4349)): 1.052
Pa-Ca/Pa-C (iTRAQ abundance ratio Pa-Cathelicidin/Pa-Control of protein Q9HW85 (GN=sbcB)): 0.9833
Pa-Ca/Pa-C (iTRAQ abundance ratio Pa-Cathelicidin/Pa-Control of protein Q9HWG9 (GN=phzS)): 0.9442
Pa-Ca/Pa-C (iTRAQ abundance ratio Pa-Cathelicidin/Pa-Control of protein Q9HX06 (GN=PA4021)): 1.123
Pa-Ca/Pa-C (iTRAQ abundance ratio Pa-Cathelicidin/Pa-Control of protein Q9HX89 (GN=PA3924)): 0.8403
Pa-Ca/Pa-C (iTRAQ abundance ratio Pa-Cathelicidin/Pa-Control of protein Q9HXF4 (GN=PA3852)): 1.051
Pa-Ca/Pa-C (iTRAQ abundance ratio Pa-Cathelicidin/Pa-Control of protein Q9HXG8 (GN=PA3836)): 1.058
Pa-Ca/Pa-C (iTRAQ abundance ratio Pa-Cathelicidin/Pa-Control of protein Q9HXL6 (GN=PA3779)): 0.9473
Pa-Ca/Pa-C (iTRAQ abundance ratio Pa-Cathelicidin/Pa-Control of protein Q9HXT9 (GN=wspR)): 1.096
Pa-Ca/Pa-C (iTRAQ abundance ratio Pa-Cathelicidin/Pa-Control of protein Q9HY45 (GN=PA3575)): 1.067
Pa-Ca/Pa-C (iTRAQ abundance ratio Pa-Cathelicidin/Pa-Control of protein Q9HY53 (GN=PA3564)): 0.9999
Pa-Ca/Pa-C (iTRAQ abundance ratio Pa-Cathelicidin/Pa-Control of protein Q9HYC5 (GN=PA3484)): 1.215
Pa-Ca/Pa-C (iTRAQ abundance ratio Pa-Cathelicidin/Pa-Control of protein Q9HYK2 (GN=PA3402)): 1.136
Pa-Ca/Pa-C (iTRAQ abundance ratio Pa-Cathelicidin/Pa-Control of protein Q9HYU6 (GN=PA3297)): 0.9414
Pa-Ca/Pa-C (iTRAQ abundance ratio Pa-Cathelicidin/Pa-Control of protein Q9HYV7 (GN=PA3286)): 0.9022
Pa-Ca/Pa-C (iTRAQ abundance ratio Pa-Cathelicidin/Pa-Control of protein Q9HYZ3 (GN=apeB)): 1.0565
Pa-Ca/Pa-C (iTRAQ abundance ratio Pa-Cathelicidin/Pa-Control of protein Q9HZD8 (GN=PA3070)): 0.9912
Pa-Ca/Pa-C (iTRAQ abundance ratio Pa-Cathelicidin/Pa-Control of protein Q9HZF4 (GN=PA3054)): 0.9528
Pa-Ca/Pa-C (iTRAQ abundance ratio Pa-Cathelicidin/Pa-Control of protein Q9HZG0 (GN=rlmL)): 0.9995
Pa-Ca/Pa-C (iTRAQ abundance ratio Pa-Cathelicidin/Pa-Control of protein Q9HZG4 (GN=PA3044)): 1.123
Pa-Ca/Pa-C (iTRAQ abundance ratio Pa-Cathelicidin/Pa-Control of protein Q9HZM6 (GN=ptpA)): 0.8326
Pa-Ca/Pa-C (iTRAQ abundance ratio Pa-Cathelicidin/Pa-Control of protein Q9HZN0 (GN=PA2974)): 1.056
Pa-Ca/Pa-C (iTRAQ abundance ratio Pa-Cathelicidin/Pa-Control of protein Q9HZY0 (GN=mttC)): 1.0109
Pa-Ca/Pa-C (iTRAQ abundance ratio Pa-Cathelicidin/Pa-Control of protein Q9I0F5 (GN=PA2683)): 1.0558
Pa-Ca/Pa-C (iTRAQ abundance ratio Pa-Cathelicidin/Pa-Control of protein Q9I0I2 (GN=PA2656)): 1.043
Pa-Ca/Pa-C (iTRAQ abundance ratio Pa-Cathelicidin/Pa-Control of protein Q9I0Q7 (GN=kynA)): 0.9342
Pa-Ca/Pa-C (iTRAQ abundance ratio Pa-Cathelicidin/Pa-Control of protein Q9I0R5 (GN=PA2571)): 0.9216
Pa-Ca/Pa-C (iTRAQ abundance ratio Pa-Cathelicidin/Pa-Control of protein Q9I0Z9 (GN=PA2483)): 0.8854
Pa-Ca/Pa-C (iTRAQ abundance ratio Pa-Cathelicidin/Pa-Control of protein Q9I1H9 (GN=PA2296)): 0.9095
Pa-Ca/Pa-C (iTRAQ abundance ratio Pa-Cathelicidin/Pa-Control of protein Q9I1I4 (GN=PA2291)): 1.111
Pa-Ca/Pa-C (iTRAQ abundance ratio Pa-Cathelicidin/Pa-Control of protein Q9I1M1 (GN=bkdA2)): 1.005
Pa-Ca/Pa-C (iTRAQ abundance ratio Pa-Cathelicidin/Pa-Control of protein Q9I2G3 (GN=PA1941)): 0.9926
Pa-Ca/Pa-C (iTRAQ abundance ratio Pa-Cathelicidin/Pa-Control of protein Q9I2R3 (GN=PA1832)): 0.9008
Pa-Ca/Pa-C (iTRAQ abundance ratio Pa-Cathelicidin/Pa-Control of protein Q9I2T1 (GN=gloB)): 0.964
Pa-Ca/Pa-C (iTRAQ abundance ratio Pa-Cathelicidin/Pa-Control of protein Q9I2Y1 (GN=pabB)): 0.998
Pa-Ca/Pa-C (iTRAQ abundance ratio Pa-Cathelicidin/Pa-Control of protein Q9I3F3 (GN=tusA)): 0.8155
Pa-Ca/Pa-C (iTRAQ abundance ratio Pa-Cathelicidin/Pa-Control of protein Q9I3J6 (GN=PA1517)): 1.049
Pa-Ca/Pa-C (iTRAQ abundance ratio Pa-Cathelicidin/Pa-Control of protein Q9I3L0 (GN=gcl)): 0.9901
Pa-Ca/Pa-C (iTRAQ abundance ratio Pa-Cathelicidin/Pa-Control of protein Q9I4B6 (GN=PA1222)): 0.8647
Pa-Ca/Pa-C (iTRAQ abundance ratio Pa-Cathelicidin/Pa-Control of protein Q9I4H9 (GN=PA1158)): 1.038
Pa-Ca/Pa-C (iTRAQ abundance ratio Pa-Cathelicidin/Pa-Control of protein Q9I4N6 (GN=fliS)): 1.132
Pa-Ca/Pa-C (iTRAQ abundance ratio Pa-Cathelicidin/Pa-Control of protein Q9I4N9 (GN=PA1090)): 1.038
Pa-Ca/Pa-C (iTRAQ abundance ratio Pa-Cathelicidin/Pa-Control of protein Q9I4R3 (GN=PA1061)): 0.9798
Pa-Ca/Pa-C (iTRAQ abundance ratio Pa-Cathelicidin/Pa-Control of protein Q9I5M1 (GN=migA)): 0.9698
Pa-Ca/Pa-C (iTRAQ abundance ratio Pa-Cathelicidin/Pa-Control of protein Q9I5U7 (GN=apaH)): 1.014
Pa-Ca/Pa-C (iTRAQ abundance ratio Pa-Cathelicidin/Pa-Control of protein Q9I5V3 (GN=cca)): 0.7612
Pa-Ca/Pa-C (iTRAQ abundance ratio Pa-Cathelicidin/Pa-Control of protein Q9I6B3 (GN=trmB)): 1.011
Pa-Ca/Pa-C (iTRAQ abundance ratio Pa-Cathelicidin/Pa-Control of protein Q9I7A7 (GN=PA0020)): 1.051
Pa-Ca/Pa-C (iTRAQ abundance ratio Pa-Cathelicidin/Pa-Control of protein Q9I022 (GN=PA2821)): 0.7721
Pa-Ca/Pa-C (iTRAQ abundance ratio Pa-Cathelicidin/Pa-Control of protein Q9I164 (GN=PA2417)): 1.295
Pa-Ca/Pa-C (iTRAQ abundance ratio Pa-Cathelicidin/Pa-Control of protein Q9I233 (GN=PA2082)): 0.8885
Pa-Ca/Pa-C (iTRAQ abundance ratio Pa-Cathelicidin/Pa-Control of protein Q9I300 (GN=PA1737)): 1.149
Pa-Ca/Pa-C (iTRAQ abundance ratio Pa-Cathelicidin/Pa-Control of protein Q9I342 (GN=mtnB)): 1.093
Pa-Ca/Pa-C (iTRAQ abundance ratio Pa-Cathelicidin/Pa-Control of protein Q9I468 (GN=cobC)): 0.7767
Pa-Ca/Pa-C (iTRAQ abundance ratio Pa-Cathelicidin/Pa-Control of protein Q9I538 (GN=PA0919)): 0.9631
Pa-Ca/Pa-C (iTRAQ abundance ratio Pa-Cathelicidin/Pa-Control of protein Q9I655 (GN=creB)): 0.9495
Pa-Ca/Pa-C (iTRAQ abundance ratio Pa-Cathelicidin/Pa-Control of protein Q9I656 (GN=PA0462)): 1.049
Pa-Ca/Pa-C (iTRAQ abundance ratio Pa-Cathelicidin/Pa-Control of protein Q9I673 (GN=PA0444)): 0.9127
Pa-Ca/Pa-C (iTRAQ abundance ratio Pa-Cathelicidin/Pa-Control of protein Q9I688 (GN=PA0429)): 1.007
Pa-Ca/Pa-C (iTRAQ abundance ratio Pa-Cathelicidin/Pa-Control of protein Q9I700 (GN=bauA)): 0.9294
Pa-Ca/Pa-C (iTRAQ abundance ratio Pa-Cathelicidin/Pa-Control of protein Q9X6V8 (GN=PA3998)): 1.122
Pa-Ca/Pa-C (iTRAQ abundance ratio Pa-Cathelicidin/Pa-Control of protein Q51426 (GN=ruvB)): 1.14
expression of protein Q9HTV3 (3-octaprenyl-4-hydroxybenzoate carboxy-lyase) [1]: downregulated
expression of protein Q9I298 (putative 3-methylglutaconyl-ConA hydratase) [1]: downregulated
expression of protein Q9I5V3 (multifunctional CCA protein) (treated vs untreated, iTRAQ, levofloxacin change not categorized as differentially expressed): downregulated
